Results from article PMC7930822, “Phase I Trial to Evaluate the Tolerance, Pharmacokinetics and Efficacy of the Broad-Spectrum ErbB Family Inhibitor Larotinib Mesylate in Patients With Advanced Solid Tumors” (Frontiers in Pharmacology, 2021).
Where a name gives a salt, the structure may show the parent alone. Read-outs that look alike come from different tables or passages of the source.

Experiment: phase I plasma pharmacokinetics (non-compartmental, LC-MS/MS)
Assay type: in vivo, human
Details: plasma, plasma; for Tmax / Vd/F / AUC(0-t) / AUC(0-inf) / Cmax / half-life / AUC: human; for Tmax / Vd/F / AUC(0-t) / AUC(0-inf) / Cmax / half-life: po; for AUC: read-out: AUCτ,ss, mean (min–max)
Procedure: This was a phase I, single-center, open-label, dose-escalation study conducted at First Hospital of Jilin University, China (registration no.: ChiCTR-OPC-15007153 registered at http://www.chictr.org.cn). Larotinib mesylate hard capsules were produced and supplied by Sunshine Lake Pharma Co., Ltd (Guangdong Province, China) in different unit doses of […] under GMP condition. Seven dose levels were designed in the study: 50, 100, 150, 220, 300, 350, and 400 mg with administration stages labeled cycle 0, cycle 1, and subsequent treatment cycles. Patients received an oral single dose of larotinib mesylate after fasting during a 6-days cycle 0 to evaluate the tolerance and pharmacokinetic characteristics. After cycle 0, larotinib mesylate was continuously administered once daily for 28 days in cycle 1, and the tolerance and pharmacokinetic characteristics of multiple doses were evaluated (Figure 2). The patients who […] disease control (complete response [CR], partial response [PR], or stable disease [SD]) at the end of cycle one were permitted to participate in the subsequent 28-days treatment cycles until progressive disease (PD) or intolerance was observed.
Blood samples (4 ml) for pharmacokinetic analyses were collected in tubes containing K2EDTA anticoagulant. Blood samples were centrifuged at 3,000 rpm for 10 min at 4°C and stored at –80°C until liquid chromatography-mass spectrophotometry (LC-MS/MS) analysis. Urine and fecal samples were collected only when patients were given the150-mg and 220-mg dose levels at sampling time intervals of 0–4, 4–8, 8–12, 12–24, 24–48, 48–72, 72–96 and 96–120 h in cycle 0.
Linear mixed effects model was used to explore the dose exposure relationships. Dose proportionality was concluded if the 95% confidence interval (CI) of the linear regression slope was completely contained within the decision interval (1 + ln (0.8)/ln (8)∼1 + ln (1.25)/ln (8)). For urine and fecal data, the accumulative excretion rates of larotinib and M5 were calculated.
Bioanalysis was performed at Frontage Company (Shanghai, China). Validated high-performance LC-MS/MS method was used to quantify the concentrations of larotinib and M5 in plasma, urine and feces samples. Protein precipitation was employed for plasma, urine and feces processing. Plasma larotinib and M5 concentrations were determined using appropriate calibration curves obtained from standards in the range of 0.5–1,000 ng/ml. The interassay precision of the analysis method were 4.2–5.4% for larotinib and 3.9–4.3% for M5. The interassay accuracy of the analysis method were 100.4–103.4% for larotinib and 102.2–102.9% for M5, respectively.
Statistical analyses were performed using SAS software, version 9.2 (SAS Institute Inc., United States). Descriptive statistics were used to summarize continuous variables as cases, means with standard deviations (SDs), medians, quartiles, maximums and minimums. For categorical variables, frequencies and percentages were used. A linear mixed effects model, relating log-transformed Cmax and AUC parameters to log-transformed dose, was used to investigate dose proportionality.

[1] = multiple oral administration, 50 mg larotinib mesylate, steady state
[2] = multiple oral administration, 100 mg larotinib mesylate, steady state
[3] = multiple oral administration, 150 mg larotinib mesylate, steady state
[4] = multiple oral administration, 220 mg larotinib mesylate, steady state
[5] = multiple oral administration, 300 mg larotinib mesylate, steady state
[6] = multiple oral administration, 350 mg larotinib mesylate, steady state
[7] = multiple oral administration, 400 mg larotinib mesylate, steady state

## COc1cc2ncnc(Nc3ccc(F)c(Cl)c3)c2cc1OCCCN1C[C@@H]2OCCO[C@@H]2C1 [larotinib mesylate]
300 mg, multiple oral administration, 300 mg larotinib mesylate, steady state, read-out: Tmax,ss, median (min–max)
  Tmax: 5 h
300 mg, multiple oral administration, 300 mg larotinib mesylate, steady state, read-out: Vz/F,ss, mean (min–max)
  Vd/F: 1060 L
300 mg, single oral administration, 300 mg larotinib mesylate, read-out: AUC0-24, mean (min–max)
  AUC(0-t): 2690 ng·h/mL
300 mg, single oral administration, 300 mg larotinib mesylate, read-out: AUC0-t, mean (min–max)
  AUC(0-t): 4880 ng·h/mL
300 mg, single oral administration, 300 mg larotinib mesylate, read-out: AUC0-∞, mean (min–max)
  AUC(0-inf): 5550 ng·h/mL
300 mg, single oral administration, 300 mg larotinib mesylate, read-out: Cmax, mean (min–max)
  Cmax: 267 ng/mL
300 mg, single oral administration, 300 mg larotinib mesylate, read-out: T1/2, mean (min–max) (converted)
  half-life: 46.2 h
300 mg, single oral administration, 300 mg larotinib mesylate, read-out: Tmax, median (min–max)
  Tmax: 5 h
300 mg, single oral administration, 300 mg larotinib mesylate, read-out: Vz/F, mean (min–max)
  Vd/F: 4340 L
350 mg, multiple oral administration, 350 mg larotinib mesylate, steady state, read-out: AUC0-t,ss, mean (min–max)
  AUC(0-t): 35900 ng·h/mL
350 mg, multiple oral administration, 350 mg larotinib mesylate, steady state, read-out: AUC0-∞,ss, mean (min–max)
  AUC(0-inf): 47300 ng·h/mL
350 mg, multiple oral administration, 350 mg larotinib mesylate, steady state, read-out: Cmax,ss, mean (min–max)
  Cmax: 695 ng/mL
350 mg, multiple oral administration, 350 mg larotinib mesylate, steady state, read-out: T1/2,ss, mean (min–max) (converted)
  half-life: 58.6 h
350 mg, multiple oral administration, 350 mg larotinib mesylate, steady state, read-out: Tmax,ss, median (min–max)
  Tmax: 5 h
350 mg, multiple oral administration, 350 mg larotinib mesylate, steady state, read-out: Vz/F,ss, mean (min–max)
  Vd/F: 641 L
350 mg, single oral administration, 350 mg larotinib mesylate, read-out: AUC0-24, mean (min–max)
  AUC(0-t): 3240 ng·h/mL
350 mg, single oral administration, 350 mg larotinib mesylate, read-out: AUC0-t, mean (min–max)
  AUC(0-t): 6120 ng·h/mL
350 mg, single oral administration, 350 mg larotinib mesylate, read-out: AUC0-∞, mean (min–max)
  AUC(0-inf): 6830 ng·h/mL
350 mg, single oral administration, 350 mg larotinib mesylate, read-out: Cmax, mean (min–max)
  Cmax: 300 ng/mL
350 mg, single oral administration, 350 mg larotinib mesylate, read-out: T1/2, mean (min–max) (converted)
  half-life: 44.6 h
350 mg, single oral administration, 350 mg larotinib mesylate, read-out: Tmax, median (min–max)
  Tmax: 3.5 h
350 mg, single oral administration, 350 mg larotinib mesylate, read-out: Vz/F, mean (min–max)
  Vd/F: 3800 L
400 mg, multiple oral administration, 400 mg larotinib mesylate, steady state, read-out: AUC0-t,ss, mean (min–max)
  AUC(0-t): 45000 ng·h/mL
400 mg, multiple oral administration, 400 mg larotinib mesylate, steady state, read-out: AUC0-∞,ss, mean (min–max)
  AUC(0-inf): 70400 ng·h/mL
400 mg, multiple oral administration, 400 mg larotinib mesylate, steady state, read-out: Cmax,ss, mean (min–max)
  Cmax: 845 ng/mL
400 mg, multiple oral administration, 400 mg larotinib mesylate, steady state, read-out: T1/2,ss, mean (min–max) (converted)
  half-life: 87 h
400 mg, multiple oral administration, 400 mg larotinib mesylate, steady state, read-out: Tmax,ss, median (min–max)
  Tmax: 6 h
400 mg, multiple oral administration, 400 mg larotinib mesylate, steady state, read-out: Vz/F,ss, mean (min–max)
  Vd/F: 754 L
400 mg, single oral administration, 400 mg larotinib mesylate, read-out: AUC0-24, mean (min–max)
  AUC(0-t): 3970 ng·h/mL
400 mg, single oral administration, 400 mg larotinib mesylate, read-out: AUC0-t, mean (min–max)
  AUC(0-t): 7440 ng·h/mL
400 mg, single oral administration, 400 mg larotinib mesylate, read-out: AUC0-∞, mean (min–max)
  AUC(0-inf): 9090 ng·h/mL
400 mg, single oral administration, 400 mg larotinib mesylate, read-out: Cmax, mean (min–max)
  Cmax: 354 ng/mL
400 mg, single oral administration, 400 mg larotinib mesylate, read-out: T1/2, mean (min–max) (converted)
  half-life: 68.6 h
400 mg, single oral administration, 400 mg larotinib mesylate, read-out: Tmax, median (min–max)
  Tmax: 5 h
400 mg, single oral administration, 400 mg larotinib mesylate, read-out: Vz/F, mean (min–max)
  Vd/F: 7410 L
Single oral dose, across 50–400 mg, read-out: mean t1/2
  half-life: 39.3 to 68.6 h
Single oral dose, across 50–400 mg, read-out: median Tmax
  Tmax: 3.5 to 6 h
[1]
  AUC: 1220 ng·h/mL
  CL/F,ss, mean (min–max): 10.73 (7.513–12.58) L/h
[2]
  AUC: 1970 ng·h/mL
  CL/F,ss, mean (min–max): 21.17 (13.80–29.53) L/h
[3]
  AUC: 6500 ng·h/mL
  CL/F,ss, mean (min–max): 6.512 (4.414–7.565) L/h
[4]
  AUC: 10300 ng·h/mL
  CL/F,ss, mean (min–max): 5.126 (4.592–6.098) L/h
[5]
  AUC: 7260 ng·h/mL
  CL/F,ss, mean (min–max): 13.91 (10.58–18.36) L/h
[6]
  AUC: 13200 ng·h/mL
  CL/F,ss, mean (min–max): 7.648 (5.819–8.842) L/h
[7]
  AUC: 16100 ng·h/mL
  CL/F,ss, mean (min–max): 6.087 (4.160–7.894) L/h
Single oral administration, 50 mg larotinib mesylate
  CL/F, mean (min–max): 62.01 (54.17–71.3) L/h
Single oral administration, 100 mg larotinib mesylate
  CL/F, mean (min–max): 73.81 (62.61–90.83) L/h
Single oral administration, 150 mg larotinib mesylate
  CL/F, mean (min–max): 29.11 (18.30–38.09) L/h
Single oral administration, 220 mg larotinib mesylate
  CL/F, mean (min–max): 27.79 (24.27–33.83) L/h
Single oral administration, 300 mg larotinib mesylate
  CL/F, mean (min–max): 63.76 (30.15–116.4) L/h
Single oral administration, 350 mg larotinib mesylate
  CL/F, mean (min–max): 55.78 (36.19–73.27) L/h
Single oral administration, 400 mg larotinib mesylate
  CL/F, mean (min–max): 70.47 (29.90–145.6) L/h
